Assay results published in PMC11939078, “TAK-994 mechanistic investigation into drug-induced liver injury” (Toxicological Sciences, 2025).
Read-outs that look alike come from different tables or passages of the source.

Key:
[1] = tested on: PXB cells (human hepatocytes); assay: CLF efflux (bile transport) assay in PXB cells; assay type: cell-based; conditions: n = 3
Description: Cholyl-lysyl-fluorescein (CLF) efflux for TAK-994 was assessed using human hepatocytes implanted into PXB-mice. PXB cells were exposed to TAK-994 (0.3, 1, 3, 10, 30, and 100 μM) or vehicle for 2 h and then incubated for an additional 30 min with TAK-994 or vehicle containing 5 μM CLF. CLF efflux and its inhibition by TAK-994 were assessed by fluorescence analysis.
PXB hepatocytes were generated by implanting human hepatocytes into PXB-mice®. These hepatocytes were isolated by collagenase perfusion at PhoenixBio Co Ltd. Freshly isolated hepatocytes were maintained in T-75 flasks and detached using 0.25% trypsin/ethylenediaminetetraacetic acid (EDTA) incubation for 20 minutes (total) using the following procedure. A flash wash was performed with cold trypsin/EDTA, followed by a 5-minute incubation with cold trypsin/EDTA at 37°C, and finally a 15-minute incubation at 37°C with trypsin/EDTA. […]
On Day 8, PXB cells were exposed to TAK-994 (0.3, 1, 3, 10, 30, and 100 μM) or 0.1% DMSO for 2 hours and then incubated for an additional 30 minutes with TAK-994 or […] containing 5 μM CLF. […] The CLF efflux and its inhibition by TAK-994 was quantified using Developer toolbox software. […] The fluorescent intensities of bile canalicular regions were measured to determine the IC50 for TAK-994 CLF efflux inhibition. […]

human liver microtissues = assay: Glutathione depletion (BSO) assay in liver microtissues; assay type: cell-based; conditions: for IC50: cellular ATP, 14 days
Description: Toxicology of TAK-994 was assessed using lnSphero’s 3D lnSight Human Liver models, based on N-acetyl-L-cysteine causality assay, glutathione depletion assay, and lipopolysaccharide (LPS)-sensitization assay. Hepatotoxicity was assessed in 7- and 14-day mono and co-culture models, in which cells were exposed to TAK-994 (0.1, 0.3, 1, 3.16, 10, 31.6, or 100 μM) […].
Co-culture model cells were pretreated with BSO (150 μM in DMSO) and then exposed to TAK-994 (0.1, 0.3, 1, 3.16, 10, 31.6, or 100 μM in 0.5% DMSO) in the presence and absence of BSO for 14 days (during the treatment period, TAK-994 with or without BSO was administered on Days 0, 5, and 9). Six replicates were tested for each condition. The vehicle control was 0.5% DMSO and the positive control was acetaminophen (0.6, 1.25, 2.5, or 5 mM in Medium TOX). Cellular ATP content was measured in the cell lysate on Day 14 of treatment. LDH release was measured on Days 5, 9, and 14 in the cell supernatant. For cells administered BSO alone, cellular ATP content was also measured on Day 3 and LDH release was also determined between Days 0 to 3. LDH measurements were normalized to lysed controls. Cellular GSH content was measured by GSH-Glo™ Glutathione Assay (Promega) on Days 0, 3, and 14 in the positive control group.
Intracellular ATP content in model lysates was measured with the CellTiter-Glo® 2.0 Cell Viability Assay (Catalogue No. G9243, Promega). The Bioluminescent LDH Release Toxicity Assay Kit (Catalogue No. J2380, Promega) was used to assess extracellular LDH release and normalized to lysed controls. ATP, LDH, GSH, and triglycerides were measured according to internal technical operating procedures.

[2] = Plasma exposure in NT1 patients; assay type: in vivo, human
human BSEP = human BSEP (Homo sapiens, UniProt O95342); assay: BSEP inhibition, [3H]TCA uptake into membrane vesicles; assay type: biochemical; conditions: [3H]TCA transport
Description: Covalent binding of TAK-994 was assessed by incubating [^14C]TAK-994 with human hepatocytes. The CVB level was determined by relating the total amount of radioactivity (pmol equivalent) to the protein concentration in each sample. Assessment of TAK-994 inhibition potential for the bile salt efflux pump (BSEP) was assessed by incubating [^3H(G)]taurocholic acid with TAK-994 (0 to 100 μM/l) or cyclosporin A after addition of 10 μl of membrane vesicles expressing BSEP or control membrane vesicles. Scintillation counts were assessed in two 5-min cycles.
Membrane vesicles prepared from baculovirus-infected insect cells, expressing human BSEP or controls (Lot Nos. ISAOG29 and IKING23, respectively), were purchased from GenoMembrane Co., Ltd.
The [^3H]TCA reaction mixture (n=42) containing TAK-994 (including 0–100 μM/L TAK-994) or cyclosporin A was pre-incubated at 37°C for 5 minutes. The transport reaction was initiated by addition of 10 μL of membrane vesicles expressing BSEP or control membrane vesicles (0.05 mg protein) to the [^3H]TCA reaction mixture (final [^3H]TCA concentration of 2 μM/L). […] The glass fiber filter was measured for radioactivity using an LSC. […]
The count rates in cpm were corrected to dpm, with the background and counting efficiency assessed using the external standard method described by the manufacturer. […]

patients with narcolepsy = tested on: patients with narcolepsy; design: method as in Dauvilliers et al. 2023; conditions: 30, 90 or 180 mg twice daily, 8 wk; ref Dauvilliers et al. 2023; cited from earlier work

Chain of human BSEP (O95342 whole entry): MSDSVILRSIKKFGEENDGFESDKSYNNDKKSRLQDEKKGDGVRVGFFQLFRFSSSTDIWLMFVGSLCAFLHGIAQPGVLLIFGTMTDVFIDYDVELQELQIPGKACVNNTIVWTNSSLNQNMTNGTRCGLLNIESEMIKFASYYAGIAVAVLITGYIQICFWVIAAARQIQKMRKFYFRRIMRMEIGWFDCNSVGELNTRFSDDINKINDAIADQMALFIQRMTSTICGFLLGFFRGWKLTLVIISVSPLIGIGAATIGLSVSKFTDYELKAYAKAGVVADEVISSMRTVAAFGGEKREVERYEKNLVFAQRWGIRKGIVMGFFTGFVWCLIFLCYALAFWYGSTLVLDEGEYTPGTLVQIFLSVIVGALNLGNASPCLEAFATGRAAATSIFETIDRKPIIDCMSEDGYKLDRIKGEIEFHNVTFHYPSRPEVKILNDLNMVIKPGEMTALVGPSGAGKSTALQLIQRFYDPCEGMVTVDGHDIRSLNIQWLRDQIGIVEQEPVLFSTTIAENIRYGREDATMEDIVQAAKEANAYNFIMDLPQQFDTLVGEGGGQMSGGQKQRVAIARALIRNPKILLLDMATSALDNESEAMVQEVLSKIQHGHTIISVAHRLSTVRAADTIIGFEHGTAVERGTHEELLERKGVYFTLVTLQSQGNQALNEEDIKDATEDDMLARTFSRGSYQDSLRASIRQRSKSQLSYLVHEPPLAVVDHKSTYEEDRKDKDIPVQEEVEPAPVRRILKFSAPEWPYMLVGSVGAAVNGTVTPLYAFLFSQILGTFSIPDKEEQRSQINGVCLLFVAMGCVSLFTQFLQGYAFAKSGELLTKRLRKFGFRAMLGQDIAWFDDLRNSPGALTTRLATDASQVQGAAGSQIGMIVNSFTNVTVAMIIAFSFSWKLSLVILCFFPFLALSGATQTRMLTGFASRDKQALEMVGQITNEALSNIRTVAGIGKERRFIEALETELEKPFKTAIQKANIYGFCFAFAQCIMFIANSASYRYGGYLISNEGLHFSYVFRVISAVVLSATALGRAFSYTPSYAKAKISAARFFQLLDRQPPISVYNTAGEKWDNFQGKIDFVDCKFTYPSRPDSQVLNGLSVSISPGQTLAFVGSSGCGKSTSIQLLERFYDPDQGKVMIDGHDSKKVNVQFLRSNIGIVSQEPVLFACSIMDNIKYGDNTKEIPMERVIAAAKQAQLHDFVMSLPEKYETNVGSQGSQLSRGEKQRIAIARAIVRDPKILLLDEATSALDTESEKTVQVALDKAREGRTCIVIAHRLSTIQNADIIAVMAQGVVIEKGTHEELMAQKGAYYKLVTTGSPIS

SMILES: CC(C)(O)C(=O)N1CC[C@H](NS(C)(=O)=O)[C@@H]1Cc1cccc(-c2cc(F)cc(F)c2)c1F.CC(C)(O)C(=O)N1CC[C@H](NS(C)(=O)=O)[C@@H]1Cc1cccc(-c2cc(F)cc(F)c2)c1F.O.O.O [TAK-994]
- IC50 [1]: 30 µM
- sensitization of liver microtissues by buthionine sulfoximine depletion (human liver microtissues): no such sensitivity was observed
- IC50 (human liver microtissues; glutathione depleted, read-out: IC50, liver microtissues + BSO (Fig. 4A)): > 100 µM
- IC50 (human liver microtissues; read-out: IC50, liver microtissues without BSO (Fig. 4A)): > 100 µM
- AUC24, ss in NT1 patients ([2]; 30 mg BID): 2,920 h*nM
- Cmax ([2]; 30 mg BID): 408 nM
- AUC24, ss in NT1 patients ([2]; 90 mg BID): 8,870 h*nM
- Cmax ([2]; 90 mg BID): 948 nM
- AUC24, ss in NT1 patients ([2]; 180 mg BID): 14,800 h*nM
- Cmax ([2]; 180 mg BID): 1640 nM
- IC50 (human BSEP): 34.1 µM
- mean wakefulness time in people with narcolepsy (patients with narcolepsy): effectively increased mean wakefulness time
